Assay results reported in patent US9717751B2, “Chitin or derivatives thereof for the prevention and/or treatment of parasitoses” (LESAFFRE ET COMPAGNIE, priority 2012, dated 2017).
Values joined by “and” are separate entries in the source; they are usually repeats but may differ in a detail not shown here. Equal entries are not always repeated. Structures can show the parent of a compound that is named as a salt.

Columns and labels:
C. parvum [1] = assay: Effect of the compounds on C. parvum development in CMT-93 murine cells; assay type: cell-based, Cryptosporidium parvum; conditions: CMT-93 cells, 18 μg/ml
Method: The C. parvum oocysts used were isolated from feces (stools) of calves that had been experimentally infected (by INRA [French National Institute for Agricultural Research] of Tours).
The tests are carried out on cells of the CMT-93 murine line (mycoplasma-free) cultured in complete medium comprising 10% of FCS (Fetal Calf Serum).
Interferon-γ at 10 ng/ml is used as a positive control. This is because partial inhibition of C. parvum multiplication in enterocytes under the action of this cytokine has been described.
The cells of the CMT-93 line are seeded in a proportion of 3.6×10^5 cells per well.
The test compounds are added after 8 h.
After 24 h, the cells are lysed with trypsin and labeled with a fluorescent lectin (VVL-FITC), in order to be able to find the infected cells with a fluorescence microscope. The number of infected cells is found manually.

C. parvum [2] = assay: Direct test: compound added to C. parvum-infected HCT-8 cells; assay type: cell-based, Cryptosporidium parvum; conditions: direct addition, 500 μg/ml; for Number of sporozoites: single tests; for Number of sporozoites, Mean: triplicate mean; for viability at 500 µg/mL: Cryptosporidium parvum, T+ = 100, read-out: % of viable sporozoites
Method: (§1) Two cell models were tested: HCT-8 cells (human ileocecal adenocarcinoma cells) and Caco-2 cells (human colonic adenocarcinoma cells).
(§2) The Iowa Cryptosporidium parvum strain (Waterborne inc., New Orleans, La., USA) is used for the tests.
(§3) The infection is carried out on cells at 70%-80% confluence, cultured in a monolayer on collagen-coated coverslips in 24-well plates.
(§4) The supernatant of the cells in a monolayer is replaced with 3 ml of culture medium to which 1×10^4 C. parvum oocysts are added. After incubation for 3 hours in a humid incubator at 37° C. and 5% CO2, the supernatant is replaced with 3 ml of culture medium and incubated for 48 h in a humid incubator at 37° C., 5% CO2 and 80% humidity.
(§5) The culture medium of the infected cells is replaced with 1 ml of culture medium to which the test compound is then added, at a final concentration of 500 μg/ml.
(§6) The plates are incubated for 48 h in a humid incubator at 37° C. and 5% CO2.
(§7) The intracellular oocysts are stained after fixing the cells with methanol. The labeling is carried out using a specific conjugated polyclonal antibody (Sporo-Glo 20×Waterborne inc., New Orleans, La., USA). The coverslips are then mounted on slides. The intracellular oocysts are counted with a fluorescence microscope.
(§8) On each slide, 6×50 fields randomly chosen over the entire surface area of the slide are counted.
(§9) The results obtained are a triplicate mean. The data are analyzed by ANOVA. A p-value of less than or equal to 0.05 is considered to be significant.
(§10) The various compounds are tested at a dose of 500 μg/ml.

C. parvum [3] = assay: Direct test: compound added to C. parvum-infected Caco-2 cells; assay type: cell-based, Cryptosporidium parvum; conditions: direct addition, 500 μg/ml; for Number of sporozoites: single tests; for Number of sporozoites, Mean: triplicate mean; for viability at 500 µg/mL: Cryptosporidium parvum, T+ = 100, read-out: % of viable sporozoites
Method: as §1, §2, §3, §4, §5, §6, §7, §8, §9, §10

C. parvum [4] = assay: Preincubation test: C. parvum oocysts preincubated 24 h with compound, then infection of Caco-2 cells; assay type: cell-based, Cryptosporidium parvum; conditions: preincubation 24 h, 500 μg/ml; for Number of sporozoites, Mean: triplicate mean; for viability at 500 µg/mL: Cryptosporidium parvum, T+ = 100, read-out: % of viable sporozoites
Method: (§11) Two cell models were tested: HCT-8 cells (human ileocecal adenocarcinoma cells) and Caco-2 cells (human colonic adenocarcinoma cells). The Iowa Cryptosporidium parvum strain (Waterborne inc., New Orleans, La., USA) is used for the tests. The infection is carried out on cells at 70%-80% confluence, cultured in a monolayer on collagen-coated coverslips in 24-well plates. The supernatant of the cells in a monolayer is replaced with 3 ml of culture medium to which 1×10^4 C. parvum oocysts are added. After incubation for 3 hours in a humid incubator at 37° C. and 5% CO2, the supernatant is replaced with 3 ml of culture medium and incubated for 48 h in a humid incubator at 37° C., 5% CO2 and 80% humidity. In each well of a plate, 1×10^4 oocysts are brought into contact with 500 μg/ml of paromomycin, chitosan or NAG. The plates are incubated for 24 h in a humid incubator at 37° C. and 5% CO2. The cells are then infected as indicated above. The intracellular oocysts are stained after fixing the cells with methanol. The labeling is carried out using a specific conjugated polyclonal antibody (Sporo-Glo 20×Waterborne inc., New Orleans, La., USA). The coverslips are then mounted on slides. The intracellular oocysts are counted with a fluorescence microscope. On each slide, 6×50 fields randomly chosen over the entire surface area of the slide are counted. The results obtained are a triplicate mean. The data are analyzed by ANOVA. A p-value of less than or equal to 0.05 is considered to be significant. The tested compounds are incubated for 24 h with C. parvum oocysts before the in vitro infection at a dose of 500 μg/ml.

C. parvum [5] = assay: Preincubation test: C. parvum oocysts preincubated 24 h with compound, then infection of HCT-8 cells; assay type: cell-based, Cryptosporidium parvum; conditions: preincubation 24 h, 500 μg/ml; for Number of sporozoites: single tests; for Number of sporozoites, Mean: triplicate mean; for viability at 500 µg/mL: Cryptosporidium parvum, T+ = 100, read-out: % of viable sporozoites
Method: as §11

CMT-93 cells = assay: Chemokine production by epithelial cells (quantitative RT-PCR); assay type: cell-based, murine; conditions: 24 h incubation
Method: The tests are carried out on cells of the CMT-93 murine line (mycoplasma-free) cultured in complete medium comprising 10% of FCS (Fetal Calf Serum) or on dendritic cells derived from bone marrow (immature) in the presence of GM-CSF (Granulocyte Macrophage Colony Stimulating Factor) added regularly to the culture for 9 days. Chemokine production by the epithelium or other intestinal cells is important for the recruitment of the inflammatory cells required for protection against cryptosporidiosis in newborns. Chemokine production by epithelial cells is measured by quantitative RT-PCR (quantification by incorporation of Sybr green) after incubation of CMT-93 cells with the various compounds for 24 h.

| Molecule | effectiveness compared with paromomycin (C. parvum [2]) | reduction in parasite development (C. parvum [2]) | Number of sporozoites, Mean (C. parvum [2]; 48 h) | reduction in parasite development (C. parvum [3]) | Number of sporozoites, Mean (C. parvum [3]; 48 h) | reduction of parasite development (C. parvum [4]) | Number of sporozoites, Mean (C. parvum [4]) | reduction of parasite development (C. parvum [5]) | Number of sporozoites, Mean (C. parvum [5]) | reduction of parasite multiplication compared with the nontreated control (C. parvum [1]) | viability at 500 µg/mL (C. parvum [2]; 48 h) | Number of sporozoites (C. parvum [2]; 48 h) | viability at 500 µg/mL (C. parvum [3]; 48 h) | viability at 500 µg/mL (C. parvum [4]) | viability at 500 µg/mL (C. parvum [5]) | further results |
| --- | --- | --- | --- | --- | --- | --- | --- | --- | --- | --- | --- | --- | --- | --- | --- | --- |
| poly-(N-deacetyl-D-glucosamine) [insoluble chitosan] |  |  |  |  |  |  |  |  |  |  |  |  |  |  |  | infected cells (C. parvum [1]; nontreated control 50% of infected cells): approximately 40% |
| chitosan hydrochloride | more effective than paromomycin | 93.6% | 73 | 68% | 282 | 97.6% | 28 | 95.7% | 47 | 31% |  |  |  |  |  | % of viable sporozoites (C. parvum [2]; 48 h, T+ = 100): 6.4%; Number of sporozoites (C. parvum [2]; 48 h, hydrochloride): 90 and 66 and 64; effectiveness compared with paromomycin (C. parvum [3]): more effective; % of viable sporozoites (C. parvum [3]; 48 h, T+ = 100): 32.0%; Number of sporozoites (C. parvum [3]; 48 h, hydrochloride): 372 and 199 and 276; % of viable sporozoites (C. parvum [4]; T+ = 100): 2.44%; % of viable sporozoites (C. parvum [5]; T+ = 100): 4.3%; Number of sporozoites (C. parvum [5]; hydrochloride): 47 and 52 and 37 |
| NC[C@@H]1O[C@H](O[C@H]2[C@@H](O)[C@H](O[C@@H]3[C@@H](O)[C@H](N)C[C@H](N)[C@H]3O[C@H]3O[C@H](CO)[C@@H](O)[C@H](O)[C@H]3N)O[C@@H]2CO)[C@H](N)[C@@H](O)[C@@H]1O [Paromomycin, paromomycin sulfate, reference compound] |  | 44.6% | 191 | 33.6% | 592 | 97.1% | 33 | 99.5% | 6 |  | 55.4% | 208 and 178 and 187 | 66.4% | 2.87% | 0.53% |  |
| CC(=O)N[C@H]1C(O)O[C@H](CO)[C@@H](O)[C@@H]1O (stereo partly drawn) [NAG, N-acetylglucosamine] | more effective than paromomycin | 88.4% | 134 | 35.2% | 571 | 97.4% | 30 | 99.0% | 11 | 43% | 11.6% | 172 and 131 and 99 | 64.8% | 2.61% | 0.99% | Number of sporozoites (C. parvum [3]; 48 h): 656 and 485 and 337; Number of sporozoites (C. parvum [4]; single tests): 21 and 39 and 31; Number of sporozoites (C. parvum [5]): 12 and 14 and 7; production of chemokines CXCL10 and CCL20, ranking of the products (CMT-93 cells): most effective |
